According to patent US20240342169A1 (BETTA PHARMACEUTICALS CO., LTD, priority 2021, published 2024):

How the values were obtained:
Hs746T Xenograft Model = assay: In vivo antitumor activity, Hs746T Xenograft Model; design: species or system BALB/c nude mice; conditions: for Tumor volume: 30 mg/kg intragastrically twice a day
From the text: BALB/c nude mice provided by Shanghai Sipur-Bika Experimental Animal Co., Ltd: SPF grade animals, 6-8 weeks old, weighing 18-23 grams; gender: female; number: 18 mice in the group. • Antibiotic(penicillin, streptomycin): (Gibco, 15240-062). • Administration in solvent control group: Aqueous solution containing 0.5% HPMC and 0.4% Tween 80.
In order to prepare a Hs746T Xenograft Model, BALB/c Nude mice were inoculated subcutaneously with Hs746T cells (harbor an MET exon 14 skipping mutation, provided by ATCC (American Type Cultural Collection)). […] Test compounds were administered intragastrically starting from group date, twice a day for 18 days. Safety evaluation was performed based on animal weight changes and death, and efficacy evaluation was performed based on relative tumor inhibition rate (TGI %).
Human gastric cancer Hs746T cells were cultured single layer in vitro using DMEM medium containing […] and 1% antibiotic solution, and incubated in a 5% CO2, 37° C. incubator. The cells were subcultured traditionally twice a week. The cells were harvested when the confluence reached 80%-90% and the number of cells reaches the required level, and then the cells were counted and seeded.
3. Tumor Measurement and Experimental Indicators Tumor diameters were measured twice a week with vernier calipers. The formula for calculating tumor volume was: V=0.5a×b2, where a and b are the long and short diameters of the tumor, respectively.
After the experiment, the tumor weight will be measured and TGI (%) will be calculated to reflect the rate of tumor growth inhibition. Calculation of TGI(%):TGI (%)=[1−(Average tumor volume at the end of administration in a certain treatment group−Average tumor volume at the beginning of administration in this treatment group)/(Average tumor volume at the end of treatment in the solvent control group−Average tumor volume at the beginning of treatment in the solvent control group)]×100%.

MET(ex14Del) kinase = biological target: T1, MET(ex14Del) kinase (Homo sapiens, UniProt P08581, DEL963-1009); assay: Kinase inhibitory activity assay (ADP-Glo Kinase Assay Kit); type: biochemical; conditions: 60 minutes at 25° C., read-out: IC50 (half inhibitory concentration) for MET (ex14Del) kinase
T1 construct: purchased Sinalchem (so in the source)
Method: • MET(ex14Del) kinase(Sinalchem, M52-12PG); • ADP-Glo Kinase Assay Kit(Promega, V9102);
And then serially diluted 9 times with DMSO at a volume ratio of 1:3 to make 10 concentrations of 100× compound working solution, the diluted compound solution was added to a 384-well plate at a volume of 0.1 μL/well. 5 μL enzyme working solution was added to the 384-well plate, centrifuged at 1000 rpm for 1 minute, incubated 15 minutes at 25° C. 5 μL substrate working solution was added to each well to make 10 concentrations of 1× compound working solution by 3-fold serial dilutions, in which the maximum concentration of the compound solution is 3000 nM, the reaction was triggered and incubated 60 minutes at 25° C. 10 μL ADP-Glo agent(Promega, V9102) was added to each well, centrifuged at 1000 rpm for 1 minute, incubated 15 minutes at 25° C., then 20 μL kinase detection reagent was added to each well, centrifuged at 1000 rpm for 1 minute. RLU (relative luminescence units) was read by Envision Multimode Plate Reader, the value of RLU was used to characterize the degree of reaction between enzyme and substrate, IC50 values were calculated by XLfit 5.3.1 nonlinear regression equation.

[1] = test system: stage IIIB/IV NSCLC carrying a MET exon 14 skipping mutation; assay: Clinical study in NSCLC patients carrying a MET exon 14 skipping mutation; type: in vivo, human; conditions: 225 mg orally once a day
From the text: Inclusion Criteria: Male or female adults, aged >18 years; Patients had newly diagnosed histologically/cytologically confirmed stage IIIB/IV. NSCLC; Patients carrying a MET exon 14 skipping mutation; EGFR/ALK wild type; at least one measurable lesion.

[2] = test system: Hs746T cells (harbor an MET exon 14 skipping mutation); assay: Cell proliferation inhibitory activity (CellTiter-Glo); type: cell-based; conditions: Homo sapiens, 168 hours incubation, CTG
Method: • 1). Cells in logarithmic growth phase were harvested and counted using cell counter. Trypan blue exclusion test was used to measure the cell viability to make sure the cell viability is at least 90%.
2). Adjust cell concentration, 180 μL cell suspension was added to each well of the 96-well plate at a density of 1200 cells/well.
3). The 96-well plate was incubated overnight under 5% CO2 and 95% humidity conditions at 37° C.
• 1). 20 μL PBS was added to each well of the seeded 96-well plate. • 2). CTG agent was melted and the cell plate was equilibrated to room temperature for 30 minutes. • 3). 100 μL CTG solution was added to each well. • 4). The plate was placed on an orbital shaker for 5 minutes to lyse the cells. • 5). The plate was placed at room temperature for 20 minutes to stabilize the luminescent signal. • 6). TO luminescence value (Lum) was recorded.
• 1). CTG agent was melted and the cell plate was equilibrated to room temperature for 30 minutes. • 2). 100 μL CTG solution was added to each well. • 3). The plate was placed on an orbital shaker for 5 minutes to lyse the cells. • 4). […] Endpoint luminescence value (Lum) was recorded.
The data were analyzed using GraphPad Prism 7.0, in order to calculate IC50, a dose-response curve was fitted using nonlinear regression model with a sigmoidal dose response. […]

T1 sequence (P08581 with tags, fused parts or gaps DEL963-1009 limits assumed): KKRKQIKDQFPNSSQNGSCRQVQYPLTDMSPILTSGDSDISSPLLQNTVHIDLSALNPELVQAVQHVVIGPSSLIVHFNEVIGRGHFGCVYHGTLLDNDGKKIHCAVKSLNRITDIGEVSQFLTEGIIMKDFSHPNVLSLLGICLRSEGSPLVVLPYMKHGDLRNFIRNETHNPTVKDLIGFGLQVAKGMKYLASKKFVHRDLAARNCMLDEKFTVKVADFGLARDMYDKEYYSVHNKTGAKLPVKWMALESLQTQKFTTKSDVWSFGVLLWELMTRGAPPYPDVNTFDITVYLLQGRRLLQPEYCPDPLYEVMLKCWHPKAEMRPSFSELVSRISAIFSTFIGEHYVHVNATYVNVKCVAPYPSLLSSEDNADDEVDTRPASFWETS

IC50 (MET(ex14Del) kinase): 7.6 nM
Structure (SMILES): C[C@@H]1CN(C(=O)c2ccc(NC(=O)c3cc(O[C@H](C)c4c(Cl)ccc(F)c4Cl)c(N)nn3)cc2)C[C@H](C)N1 [Ensartinib, ensartinib]
Tumor growth in tumor-bearing mice (in words) (Hs746T Xenograft Model; 30 mg/kg intragastrically twice a day for 18 days): obvious tumor regression was observed
Tumor volume (Hs746T Xenograft Model; Day 0 (start of dosing)): 128 ± 10 mm^3
Tumor volume (Hs746T Xenograft Model; Day 3): 109 ± 8 mm^3
Tumor volume (Hs746T Xenograft Model; Day 7): 101 ± 8 mm^3
Tumor volume (Hs746T Xenograft Model; Day 10): 74 ± 9 mm^3
Tumor volume (Hs746T Xenograft Model; Day 14): 49 ± 8 mm^3
Tumor volume (Hs746T Xenograft Model; Day 17): 29 ± 15 mm^3
ORR (objective response rate) ([1]; 12/17 patients): 71%
DCR (disease control rate) ([1]; 16/17 patients): 94%
average tumor shrinkage rate ([1]; 17 patients): −37.7%
CR (complete response) ([1]; among 17 patients): 1 case
PR (partial response) ([1]; among 17 patients): 11 cases
IC50 [2]: 31 nM
